ChEMBL document CHEMBL4513145, “CO-ADD screening of Biotechnology Research Centre (C.R.B.t) (Algeria) compounds”
In brackets after ≈: the same amount, converted by molar mass.

How the values were obtained:
Staphylococcus aureus = experiment: microbe, parasite or virus in culture; conditions: ATCC 43300, 18 h, ASSAY_TEST Inhibition of Bacterial Growth, detection method Absorption (OD600), MEDIA CAMHB, plate type 384well, NBS, CORNING #3640
Description: Antibacterial activity against Staphylococcus aureus MRSA ATCC 43300 (CO-ADD:GP_020); MIC in CAMBH media, using NBS plates, by OD(600)

Pseudomonas aeruginosa = experiment: microbe, parasite or virus in culture; conditions: ATCC 27853, 18 h, ASSAY_TEST Inhibition of Bacterial Growth, detection method Absorption (OD600), MEDIA CAMHB, plate type 384well, NBS, CORNING #3640
Description: Antibacterial activity against Pseudomonas aeruginosa ATCC 27853 (CO-ADD:GN_042); MIC in CAMBH media using NBS plates, by OD(600)

Escherichia coli = experiment: microbe, parasite or virus in culture; conditions: ATCC 25922, 18 h, ASSAY_TEST Inhibition of Bacterial Growth, detection method Absorption (OD600), MEDIA CAMHB, plate type 384well, NBS, CORNING #3640
Description: Antibacterial activity against Escherichia coli ATCC 25922 (CO-ADD:GN_001); MIC in CAMBH media using NBS plates, by OD(600)

Klebsiella pneumoniae = experiment: microbe, parasite or virus in culture; conditions: ATCC 700603, 18 h, ASSAY_TEST Inhibition of Bacterial Growth, detection method Absorption (OD600), MEDIA CAMHB, plate type 384well, NBS, CORNING #3640
Description: Antibacterial activity against Klebsiella pneumoniae MDR ATCC 70063 (CO-ADD:GN_003); MIC in CAMBH media using NBS plates, by OD(600)

HEK293 = experiment: cells; format: functional; conditions: Homo sapiens, ATCC CRL1573, HEK293; ASSAY_TEST Inhibition of Cell Viability; detection method Resazurin; Fluorescence (ex560/em590); MEDIA DMEM with 10% FBS; plate type 384well; TC; CORNING #3712; time 18 hr
Acinetobacter baumannii = experiment: microbe, parasite or virus in culture; conditions: ATCC 19606, 18 h, ASSAY_TEST Inhibition of Bacterial Growth, detection method Absorption (OD600), MEDIA CAMHB, plate type 384well, NBS, CORNING #3640
Description: Antibacterial activity against Acinetobacter baumannii ATCC 19606 (CO-ADD:GN_034); MIC in CAMBH media using NBS plates, by OD600

Candida albicans = experiment: microbe, parasite or virus in culture; conditions: ATCC 90028, ASSAY_TEST Inhibition of Fungal Growth, detection method Absorption (OD530), plate type 384well, NBS, CORNING #3640
Description: Antifungal activity against Candida albicans ATCC 90028 (CO-ADD:FG_001); MIC in YNB media using NBS plates, by OD630

Description for Cryptococcus neoformans: Antifungal activity against Cryptococcus neoformans H99 ATCC 208821 (CO-ADD:FG_002); MIC in YNB media using NBS plates, by Resazurin OD(600-570)

| SMILES | MIC (Staphylococcus aureus) | MIC (Pseudomonas aeruginosa) | MIC (Escherichia coli) | MIC (Klebsiella pneumoniae) | CC50 (HEK293) | MIC (Acinetobacter baumannii) | MIC (Cryptococcus neoformans) | MIC (Candida albicans) |
| --- | --- | --- | --- | --- | --- | --- | --- | --- |
| CCCCCCCC1CN(C(=O)OCc2ccccc2)OC1O (stereo not given) | > 32 µg/mL | > 32 µg/mL | > 32 µg/mL | > 32 µg/mL | > 32 µg/mL | > 32 µg/mL | > 32 µg/mL | > 32 µg/mL |
| CC1CN(S(=O)(=O)c2ccc([N+](=O)[O-])cc2)N(C(=O)OC(C)(C)C)C1=O (stereo not given) | 32 µg/mL (≈ 83 µM) | > 32 µg/mL | > 32 µg/mL | > 32 µg/mL | 6.8 µg/mL (≈ 17.6 µM) | > 32 µg/mL | > 32 µg/mL | > 32 µg/mL |
| CC1CN(S(=O)(=O)c2ccc([N+](=O)[O-])cc2)N(C(=O)OC(C)(C)C)C1O (stereo not given) | > 32 µg/mL | > 32 µg/mL | > 32 µg/mL | > 32 µg/mL | 6.19 µg/mL (≈ 16 µM) | > 32 µg/mL | > 32 µg/mL | > 32 µg/mL |
| CC1CN(C(=O)OCc2ccccc2)OC1O (stereo not given) | > 32 µg/mL | > 32 µg/mL | > 32 µg/mL | > 32 µg/mL | > 32 µg/mL | > 32 µg/mL | 32 µg/mL (≈ 135 µM) | > 32 µg/mL |
| O=C(OCc1ccccc1)N1CC(Cc2ccccc2)C(O)O1 (stereo not given) | > 32 µg/mL | > 32 µg/mL | > 32 µg/mL | > 32 µg/mL | > 32 µg/mL | > 32 µg/mL | > 32 µg/mL | > 32 µg/mL |
